Tests used:
Assay in all cases: relative viability (nuclei count vs DMSO), 5 days (fraction); higher = more cells survive
[1] = compound: CCc1c2c(nc3ccc(OC(=O)N4CCC(N5CCCCC5)CC4)cc13)-c1cc3c(c(=O)n1C2)COC(=O)[C@]3(O)CC [Irinotecan] + Cc1nc(Nc2ncc(C(=O)Nc3c(C)cccc3Cl)s2)cc(N2CCN(CCO)CC2)n1 [Dasatinib] (partner 0.075 µM)
In short: (§1)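 Values are medians from duplicate plates. Each reflects relative viability, defined as the nuclei count of treated wells over that of vehicle wells. Lung cancer cell lines in 1536-well plates were pin-tool dosed one day after seeding with one drug alone or with a fixed anchor-drug dose plus five library-drug doses (not always all listed) in √10 steps, then fixed, stained and imaged at 4× after 5 days.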

[2] = compound: CCc1c2c(nc3ccc(OC(=O)N4CCC(N5CCCCC5)CC4)cc13)-c1cc3c(c(=O)n1C2)COC(=O)[C@]3(O)CC [Irinotecan] + CC(=O)Nc1cccc(-n2c(=O)n(C3CC3)c(=O)c3c(Nc4ccc(I)cc4F)n(C)c(=O)c(C)c32)c1 [Trametinib] (partner 0.02 µM)
In short: as §1

[3] = compound: CCc1c2c(nc3ccc(OC(=O)N4CCC(N5CCCCC5)CC4)cc13)-c1cc3c(c(=O)n1C2)COC(=O)[C@]3(O)CC [Irinotecan] + CS(=O)(=O)CCNCc1ccc(-c2ccc3ncnc(Nc4ccc(OCc5cccc(F)c5)c(Cl)c4)c3c2)o1 [Lapatinib] (partner 2 µM)
In short: as §1

[4] = compound: CC[C@@H](C)CNCC(=O)N1CCC2=C([C@@H]1COC3=CC=CC(=C3)C)C=CS2 [RU-SKI 43] + CS(=O)(=O)CCNCc1ccc(-c2ccc3ncnc(Nc4ccc(OCc5cccc(F)c5)c(Cl)c4)c3c2)o1 [Lapatinib] (partner 2 µM)
In short: as §1

Cell Line | relative viability ([1]; first compound 0.6325 µM) | relative viability ([1]; first compound 2 µM) | relative viability ([1]; first compound 6.325 µM) | relative viability ([1]; first compound 20 µM) | relative viability ([2]; first compound 0.6325 µM) | relative viability ([2]; first compound 2 µM) | relative viability ([2]; first compound 6.325 µM) | relative viability ([2]; first compound 20 µM) | relative viability ([3]; first compound 0.6325 µM) | relative viability ([3]; first compound 2 µM) | relative viability ([3]; first compound 6.325 µM) | relative viability ([3]; first compound 20 µM) | relative viability ([4]; first compound 0.1 µM) | relative viability ([4]; first compound 0.3162 µM) | relative viability ([4]; first compound 1 µM) | relative viability ([4]; first compound 3.162 µM) | relative viability ([4]; first compound 10 µM)
NCI-H522 | 0.639 | 0.868 | 0.485 | 0.532 | 0.67 | 0.599 | 0.517 | 0.476 |  |  |  |  |  |  |  |  | 
NCI-H358 | 0.142 | 0.151 | 0.136 | 0.105 | 0.106 | 0.131 | 0.125 | 0.071 | 0.406 | 0.47 | 0.327 | 0.21 | 0.483 | 0.545 | 0.495 | 0.53 | 0.448
NCI-H1755 | 0.373 | 0.45 | 0.308 | 0.271 | 0.733 | 0.456 | 0.405 | 0.469 | 0.883 | 0.9 | 0.309 | 0.318 | 1.03 | 1.4 | 1.08 | 0.995 | 1.01
LCLC-103H | 0.413 | 0.439 | 0.324 | 0.275 | 0.655 | 0.603 | 0.463 | 0.479 |  |  |  |  |  |  |  |  | 
HOP-62 | 0.549 | 0.589 | 0.276 | 0.201 | 0.311 | 0.23 | 0.23 | 0.228 | 0.471 | 0.258 | 0.143 | 0.217 | 0.973 | 1.28 | 0.883 | 1.03 | 0.877
HCC-78 | 0.394 | 0.384 | 0.214 | 0.24 | 0.882 | 0.716 | 0.31 | 0.262 | 0.551 | 0.543 | 0.206 | 0.218 | 0.843 | 0.626 | 1.24 | 0.513 | 0.369
NCI-H650 | 0.34 | 0.396 | 0.215 | 0.245 | 0.733 | 0.308 | 0.173 | 0.206 | 0.757 | 0.693 | 0.275 | 0.31 | 0.969 | 0.837 | 1.25 |  | 0.914
NCI-H1563 | 0.392 | 0.458 | 0.44 | 0.514 |  |  |  |  | 0.674 | 1.05 | 0.954 | 0.441 | 0.871 | 0.874 | 0.879 | 0.913 | 0.765
ABC-1 |  | 0.675 | 0.444 | 0.203 |  |  |  |  | 1.05 | 1.17 | 0.646 | 0.574 | 1.23 | 1.42 | 1.12 | 1.18 | 1.24
Calu-6 |  |  |  |  |  |  |  |  | 0.599 | 0.514 | 0.226 | 0.125 | 1.28 | 1.43 | 1.08 | 1.1 | 0.982
EBC-1 |  |  |  |  |  |  |  |  | 0.219 | 0.172 | 0.21 | 0.15 | 0.186 | 0.189 | 0.215 | 0.197 | 0.181
NCI-H520 | 0.192 | 0.214 | 0.202 | 0.161 | 0.52 | 0.397 | 0.264 | 0.172 | 0.604 | 0.664 | 0.28 | 0.2 | 0.897 | 0.986 | 0.996 | 0.951 | 0.756
NCI-H322M | 0.247 | 0.331 | 0.358 | 0.191 | 0.508 | 0.616 | 0.481 | 0.304 | 0.585 | 0.654 | 0.328 | 0.363 | 0.586 | 0.635 | 0.671 | 0.635 | 0.604
201T |  | 0.552 | 0.529 | 0.36 | 0.771 | 0.347 | 0.255 | 0.27 |  | 1.03 | 0.738 | 0.322 | 1.1 | 0.997 | 1.06 | 1.05 | 1.01
RERF-LC-KJ | 0.805 | 0.725 | 0.449 | 0.158 | 0.869 | 0.63 | 0.433 | 0.282 | 0.833 | 0.692 | 0.439 | 0.364 | 0.872 | 0.892 | 0.853 | 0.959 | 0.825
A549 |  |  |  |  |  |  |  |  | 0.723 | 0.529 | 0.112 | 0.0497 | 0.95 | 1.13 | 1.09 | 0.908 | 0.759
NCI-H1648 |  |  |  |  | 0.441 | 0.383 | 0.299 | 0.323 |  |  |  |  |  |  |  |  | 
NCI-H1623 | 0.391 | 0.442 | 0.214 | 0.22 |  |  |  |  |  |  |  |  |  |  |  |  | 
NCI-H1651 | 0.319 | 0.311 | 0.281 | 0.112 | 0.831 | 0.657 | 0.419 | 0.134 | 0.293 | 0.536 | 0.179 | 0.101 | 0.846 | 0.964 | 0.98 | 0.974 | 0.764
NCI-H2405 |  | 0.218 | 0.198 | 0.18 |  | 0.734 | 0.358 | 0.179 |  | 1.05 | 0.333 | 0.101 | 1.01 | 0.964 | 1.03 | 1.04 | 0.956
